Source: ChEMBL document CHEMBL2062490, “The discovery of new potent non-peptide Angiotensin II AT1 receptor blockers: a concise synthesis, molecular docking studies and biological evaluation of N-substituted 5-butylimidazole derivatives” (Eur J Med Chem, 2012)

Key:
[1] = target: T1, Type-1 angiotensin II receptor (Homo sapiens) (UniProt P30556); assay: (§1) Displacement of 125[I-Sar1-Ile8]ANG II from human AT1 receptor expressed in HEK293 membranes after 1 hr by gamma counting; assay type: cell membranes
T1 sequence (whole entry): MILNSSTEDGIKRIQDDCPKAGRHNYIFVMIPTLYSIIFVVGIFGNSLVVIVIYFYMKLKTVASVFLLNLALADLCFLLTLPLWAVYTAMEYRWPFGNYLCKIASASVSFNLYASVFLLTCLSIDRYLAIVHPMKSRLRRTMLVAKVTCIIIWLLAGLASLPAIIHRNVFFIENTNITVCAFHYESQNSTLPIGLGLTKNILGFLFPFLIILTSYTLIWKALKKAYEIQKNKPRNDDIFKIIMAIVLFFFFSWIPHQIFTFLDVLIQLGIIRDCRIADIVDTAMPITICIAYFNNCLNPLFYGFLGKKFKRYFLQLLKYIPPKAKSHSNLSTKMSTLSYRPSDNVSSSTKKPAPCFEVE

[2] = target: T2, Type-1 angiotensin II receptor (Homo sapiens, UniProt P30556); assay: as §1; assay type: cell membranes
T2 sequence (P30556 whole entry): T1 sequence (whole entry)

[3] = Antagonist activity at AT1 receptor in rat uterus assessed inhibition of ANG II-induced contraction

SMILES | Activity [1] | IC50 ([2]; read-out: IC50) [nM] | pA2 [3] | IC50 ([2]; read-out: pIC50 (converted)) [nM]
CCCCc1cnc(C(=O)O)n1Cc1ccc(-c2ccccc2-c2nnn[nH]2)cc1 | – | 3 | – | 3.47
CCCCc1c(Br)nc(CO)n1Cc1ccc(-c2ccccc2-c2nn[nH]n2)cc1 | Dose-dependent effect | – | 7.58 | –
CCCCc1c(Cl)nc(CO)n1Cc1ccc(-c2ccccc2-c2nn[nH]n2)cc1 | Dose-dependent effect | 634 | 6.98 | –
CCCCc1c(I)nc(CO)n1Cc1ccc(-c2ccccc2-c2nn[nH]n2)cc1 | Dose-dependent effect | – | 7.35 | –
CCCCc1c(Br)nc(CO)n1Cc1ccc(-c2ccccc2-c2nnn[nH]2)cc1 | – | 117 | – | –
CCCCc1c(I)nc(CO)n1Cc1ccc(-c2ccccc2-c2nnn[nH]2)cc1 | – | 446 | – | –
CCCCc1cnc(CO)n1Cc1ccc(-c2ccccc2C(=O)O)cc1 | Dose-dependent effect | 245 | 6.19 | –
CCCCc1nc(Cl)c(CO)n1Cc1ccc(-c2ccccc2-c2nnn[nH]2)cc1 | Dose-dependent effect | – | – | –

More lines, now with the values ahead:

Activity [1] | IC50 ([2]; read-out: IC50) [nM] | pA2 [3] | IC50 ([2]; read-out: pIC50 (converted)) [nM] | SMILES
Dose-dependent effect | 24 | 7.76 | – | CCCCc1cnc(C=O)n1Cc1ccc(-c2ccccc2-c2nn[nH]n2)cc1
– | 30 | – | – | CCCCc1cnc(CO)n1Cc1ccc(-c2ccccc2-c2nnn[nH]2)cc1
Dose-dependent effect | – | 7.83 | – | CCCCc1cnc(C(=O)O)n1Cc1ccc(-c2ccccc2-c2nn[nH]n2)cc1
Dose-dependent effect | – | 7.97 | – | CCCCc1cnc(CO)n1Cc1ccc(-c2ccccc2-c2nn[nH]n2)cc1
